As usually defined, the IC50 is the midpoint of a concentration-inhibition curve.

This experiment addresses T1, HIV integrase (Human immunodeficiency virus type 1 group M subtype B, UniProt P12497, F1332H).
T1 construct: HIV integrase full length gene; made in house; host or cells: Escherichia coli BL21 (DE3)
Put plainly: Determination of enzyme (HIV integrase) inhibitory activity. It is filed as biochemical. As to conditions: recombinant integrase protein (phenylalanine at codon 185 substituted by histidine); donor/target DNA, absorbance at 450 nm; read-out: Anti-integrase activity (IC50 value). From the text:
The following explains evaluation methods of the HIV integrase inhibitory activity of the compound of the present invention.
HIV integrase full length gene (J. Virol., 67, 425-437 (1993)) in which phenylalanine at codon 185 was substituted by histidine, was inserted between the restriction enzyme NdeI and XhoI sites of plasmid pET21a(+) (Novagen), whereby an integrase expression vector pET21a-INH was constructed.
Escherichia coli recombinant BL21 (DE3) transformed with plasmid pET21a-INH obtained in (i) was shake cultured at 37° C. in a liquid medium containing ampicillin. When the culture reached the logarithmic growth phase, isopropyl-β-D-thiogalactopyranoside was added to promote expression of integrase gene. The culture was continued for 3 hr to promote accumulation of the integrase protein. The recombinant E. coli was collected in pellets by centrifugal separation and preserved at −80° C.
The E. coli was suspended in Lysis buffer (20 mM HEPES (pH 7.5), 5 mM DTT, 10 mM CHAPS, 10% glycerol) containing 1 M sodium chloride and subjected to repeat pressurization and depressurization for rupture, and centrifugal separation at 4° C., 40,000×g, 60 min to recover a water-soluble fraction (supernatant). This was diluted 10-fold with Lysis buffer free of sodium chloride, mixed with SP-Sepharose (Pharmacia Corporation) and stirred at 4° C. for 60 min to allow adsorption of integrase protein to the resin. The resin was washed with Lysis buffer containing 100 mM sodium chloride and the integrase protein was eluted with Lysis buffer containing 1 M sodium chloride.
The eluted integrase protein solution was subjected to a Superdex 75 (Pharmacia Corporation) column for gel filtration. The protein was eluted with Lysis buffer containing 1 M sodium chloride.
The obtained fractions of the integrase protein were collected and preserved at −80° C.
The following DNA synthesized by Greiner was dissolved in TE buffer (10 mM Tris-hydrochloric acid (pH 8.0), 1 mM EDTA) and mixed with donor DNA, target DNA, and each complementary strand (+ and − strands) to 1 μM. The mixture was heated at 95° C. for 5 min, 80° C. for 10 min, 70° C. for 10 min, 60° C. for 10 min, 50° C. for 10 min and 40° C. for 10 min and kept at 25° C. to give a double stranded DNA, which was used for the test.
The donor DNA was diluted with TE buffer to 10 nM, of which 50 μl was added to each well of streptavidin-coated microtiter plate (Roche) and allowed to adsorb at 37° C. for 60 min. The plate was washed with phosphate buffer (Dulbecco's PBS, Sanko Junyaku Co., Ltd.) containing 0.1% Tween 20 and phosphate buffer. Then, a reaction mixture (70 μl) having the following composition, a test substance (10 μl) diluted with the reaction mixture and 100 μg/ml integrase protein (10 μl) were added to each well and reacted at 37° C. for 60 min. Composition of the reaction mixture: 30 mM MOPS (3-morpholinopropanesulfonic acid), 5 mM magnesium chloride, 3 mM DTT (dithiothreitol), 0.1 mg/ml BSA (bovine serum albumin), 5% glycerol, 10% DMSO (dimethyl sulfoxide), 0.01% Tween 20.
Then, 50 nM target DNA (10 μl) was added, and the mixture was reacted at 37° C. for 10 min and washed with phosphate buffer containing 0.1% Tween 20 to stop the reaction.
Then, 100 mU/ml peroxidase labeled anti-digoxigenin antibody solution (Roche, 100 μl) was added, and the mixture was reacted at 37° C. for 60 min, followed by washing with phosphate buffer containing 0.1% Tween 20.
A peroxidase color solution (Bio Rad, 100 μl) was added and allowed to react at room temperature for 4 min. The color reaction was stopped by adding 1N sulfuric acid (100 μl). The absorbance at 450 nm was measured. […]
Consider `NCc1cc(C(=O)O)c(=O)n2cc(Cc3cccc(Cl)c3F)ccc12` [Example 20, 1-aminomethyl-7-(3-chloro-2-fluorobenzyl)-4-oxo-4H-quinolizine-3-carboxylic acid hydrochloric acid], for which the IC50 fell in the range of 100 to 1000 nM.

Turning to `CS(=O)(=O)NCc1cc(C(=O)O)c(=O)n2cc(Cc3cccc(Cl)c3F)ccc12` [Example 23, 7-(3-chloro-2-fluorobenzyl)-1-(methylsulfonylaminomethyl)-4-oxo-4H-quinolizine-3-carboxylic acid], the IC50 was 1000 to 10000 nM.

Turning to `CCOC(=O)c1cc(NC(=O)OC(C)(C)C)c2ccc(Cc3cccc(Cl)c3F)cn2c1=O` [Example 60, ethyl 1-(tert-butoxycarbonylamino)-7-(3-chloro-2-fluorobenzyl)-4-oxo-4H-quinolizine-3-carboxylate], the half-inhibitory concentration (IC50) lay within 100 to 1000 nM.

With `CC(C)(C)OC(=O)NCc1cc(C(=O)O)c(=O)n2cc(Cc3cccc(Cl)c3F)ccc12` [Example 35, 1-(tert-butoxycarbonylamino)methyl-7-(3-chloro-2-fluorobenzyl)-4-oxo-4H-quinolizine-3-carboxylic acid], the IC50 was 10 to 100 nM.

Consider `O=C(NCc1cc(C(=O)O)c(=O)n2cc(Cc3cccc(Cl)c3F)ccc12)c1ccccc1` [Example 45, 1-(benzoylaminomethyl)-7-(3-chloro-2-fluorobenzyl)-4-oxo-4H-quinolizine-3-carboxylic acid], for which the IC50 fell in the range of 10 to 100 nM.

As to `O=C(O)C(=O)NCc1cc(C(=O)O)c(=O)n2cc(Cc3cccc(Cl)c3F)ccc12` [Example 50, 7-(3-chloro-2-fluorobenzyl)-1-[(oxalylamino)methyl]-4-oxo-4H-quinolizine-3-carboxylic acid], the IC50 lay within 10 to 100 nM.

On to `CC(C)(C)OC(=O)c1cc(C(=O)O)c(=O)n2cc(Cc3cccc(Cl)c3F)ccc12` [Example 62, 7-(3-chloro-2-fluorobenzyl)-4-oxo-4H-quinolizine-1,3-dicarboxylic acid 1-tert-butyl ester], for which the IC50 fell in the range of 100 to 1000 nM.

As for `COCC(=O)NCc1cc(C(=O)O)c(=O)n2cc(Cc3cccc(Cl)c3F)ccc12` [Example 40, 7-(3-chloro-2-fluorobenzyl)-1-[(2-methoxyacetylamino)methyl]-4-oxo-4H-quinolizine-3-carboxylic acid], the IC50 lay within 10 to 100 nM.

`CO[C@@H](C)C(=O)NCc1cc(C(=O)O)c(=O)n2cc(Cc3cccc(Cl)c3F)ccc12` [Example 52, 7-(3-chloro-2-fluorobenzyl)-1-[((S)-2-methoxypropionylamino)methyl]-4-oxo-4H-quinolizine-3-carboxylic acid]: the IC50 is 10 to 100 nM.

As to `O=C(O)c1ccc2ccc(Cc3cccc(Cl)c3F)cn2c1=O` [Example 2, 7-(3-chloro-2-fluorobenzyl)-4-oxo-4H-quinolizine-3-carboxylic acid], the IC50 is 100 to 1000 nM.

As for `CC(C)(C)C(=O)NCc1cc(C(=O)O)c(=O)n2cc(Cc3cccc(Cl)c3F)ccc12` [Example 37, 7-(3-chloro-2-fluorobenzyl)-1-(2,2-dimethylpropionylamino)methyl-4-oxo-4H-quinolizine-3-carboxylic acid], the IC50 was in the range of 10 to 100 nM.

For `O=C(Cc1ccccc1)NCc1cc(C(=O)O)c(=O)n2cc(Cc3cccc(Cl)c3F)ccc12` [Example 49, 7-(3-chloro-2-fluorobenzyl)-4-oxo-1-(phenylacetylaminomethyl)-4H-quinolizine-3-carboxylic acid], the IC50 lay in the range of 10 to 100 nM.

As for `O=C(O)c1cc(CCO)c2ccc(Cc3cccc(Cl)c3F)cn2c1=O` [Example 7, 7-(3-chloro-2-fluorobenzyl)-1-(2-hydroxyethyl)-4-oxo-4H-quinolizine-3-carboxylic acid], the IC50 lay in the range of 10 to 100 nM.

Consider `CCOCC(=O)NCc1cc(C(=O)O)c(=O)n2cc(Cc3cccc(Cl)c3F)ccc12` [Example 55, 7-(3-chloro-2-fluorobenzyl)-1-[(2-ethoxyacetylamino)methyl]-4-oxo-4H-quinolizine-3-carboxylic acid], for which the IC50 was in the range of 10 to 100 nM.

For `O=C(O)CCC(=O)NCc1cc(C(=O)O)c(=O)n2cc(Cc3cccc(Cl)c3F)ccc12` [Example 54, 1-[(3-carboxypropionylamino)methyl]-7-(3-chloro-2-fluorobenzyl)-4-oxo-4H-quinolizine-3-carboxylic acid], the IC50 was 10 to 100 nM.

On to `CO[C@H](C)C(=O)NCc1cc(C(=O)O)c(=O)n2cc(Cc3cccc(Cl)c3F)ccc12` [Example 53, 7-(3-chloro-2-fluorobenzyl)-1-[((R)-2-methoxypropionylamino)methyl]-4-oxo-4H-quinolizine-3-carboxylic acid], for which the IC50 was 10 to 100 nM.

As for `CN(C)Cc1cc(C(=O)O)c(=O)n2cc(Cc3cccc(Cl)c3F)ccc12` [Example 38, 7-(3-chloro-2-fluorobenzyl)-1-dimethylaminomethyl-4-oxo-4H-quinolizine-3-carboxylic acid], the IC50 fell in the range of 100 to 1000 nM.

As for `O=C(O)c1cc(CO)c2ccc(Cc3cccc(Cl)c3F)cn2c1=O` [Example 18, 7-(3-chloro-2-fluorobenzyl)-1-hydroxymethyl-4-oxo-4H-quinolizine-3-carboxylic acid], the IC50 fell in the range of 10 to 100 nM.

Take `O=C(COc1ccccc1)NCc1cc(C(=O)O)c(=O)n2cc(Cc3cccc(Cl)c3F)ccc12` [Example 51, 7-(3-chloro-2-fluorobenzyl)-4-oxo-1-[(2-phenoxyacetylamino)methyl]-4H-quinolizine-3-carboxylic acid]: the IC50 lay within 10 to 100 nM.

With `CCC(=O)NCc1cc(C(=O)O)c(=O)n2cc(Cc3cccc(Cl)c3F)ccc12` [Example 42, 7-(3-chloro-2-fluorobenzyl)-4-oxo-1-(propionylaminomethyl)-4H-quinolizine-3-carboxylic acid], the IC50 is 10 to 100 nM.

Consider `CS(=O)(=O)Nc1cc(C(=O)O)c(=O)n2cc(Cc3cccc(Cl)c3F)ccc12` [Example 29, 7-(3-chloro-2-fluorobenzyl)-1-methylsulfonylamino-4-oxo-4H-quinolizine-3-carboxylic acid], for which the IC50 was 100 to 1000 nM.

Regarding `O=C(CO)NCc1cc(C(=O)O)c(=O)n2cc(Cc3cccc(Cl)c3F)ccc12` [Example 39, 7-(3-chloro-2-fluorobenzyl)-1-[(2-hydroxyacetylamino)methyl]-4-oxo-4H-quinolizine-3-carboxylic acid], the IC50 lay in the range of 10 to 100 nM.

Take `O=C(O)c1cc(NCCO)c2ccc(Cc3cccc(Cl)c3F)cn2c1=O` [Example 27, 7-(3-chloro-2-fluorobenzyl)-1-(2-hydroxyethylamino)-4-oxo-4H-quinolizine-3-carboxylic acid]: the IC50 lay in the range of 100 to 1000 nM.

As to `O=C(O)c1cc(CCO)c2ncc(Cc3cccc(Cl)c3F)cn2c1=O` [Example 34, 3-(3-chloro-2-fluorobenzyl)-9-(2-hydroxyethyl)-6-oxo-6H-pyrido[1,2-a]pyrimidine-7-carboxylic acid], the IC50 is 100 to 1000 nM.

`CC(C)[C@@H](CO)c1cc(C(=O)O)c(=O)n2cc(Cc3cccc(Cl)c3Cl)ccc12` [Example 63, 7-(2,3-dichlorobenzyl)-1-((R)-1-hydroxymethyl-2-methylpropyl)-4-oxo-4H-quinolizine-3-carboxylic acid]: the IC50 was below 10 nM.

In the case of `CCCC(=O)NCc1cc(C(=O)O)c(=O)n2cc(Cc3cccc(Cl)c3F)ccc12` [Example 43, 1-(butyrylaminomethyl)-7-(3-chloro-2-fluorobenzyl)-4-oxo-4H-quinolizine-3-carboxylic acid], the IC50 was in the range of 10 to 100 nM.

Consider `CCNC(=O)NCc1cc(C(=O)O)c(=O)n2cc(Cc3cccc(Cl)c3F)ccc12` [Example 48, 7-(3-chloro-2-fluorobenzyl)-1-[(3-ethylureido)methyl]-4-oxo-4H-quinolizine-3-carboxylic acid], for which the IC50 lay in the range of 10 to 100 nM.

Source of the values: US7745459B2, “Quinolizinone compound and use thereof as HIV integrase inhibitor” (Japan Tobacco Inc., priority 2004, dated 2010).
